Values quoted from earlier work in patent US20260272874A1, “COMPOUNDS FOR THE TREATMENT AND PREVENTION OF VIRAL DISEASES” (priority 2023, published 2026).

Experiments:
[1] = test system: coronavirus
[2] = test system: SARS-CoV-2
[3] = test system: RNA helicase enzyme eIF4A; conditions: previous studies
[4] = test system: corona viruses, SARS and MERS virus

4E2RCat
coronavirus replication [1]: capable of blocking coronavirus replication

COc1cc2c(c(OC)n1)[C@]1(O)[C@H](O)[C@H](CN(C)C)[C@@H](c3ccccc3)[C@]1(c1ccc(C#N)cc1)O2 [Zotatifin]
antiviral activity against SARS-CoV-2 [2]: shows antiviral activity

Silvesterol
inhibition of RNA helicase enzyme eIF4A [3]: potent and selective inhibitor | antiviral activity [4]: broad spectrum antiviral activity
